# From US20230398130A1, “METHODS AND COMPOSITIONS FOR DIFFERENTIATING STEM CELLS” (Massachusetts Institute of Technology, priority 2020, published 2023)
# Structures can show the parent of a compound that is named as a salt.
# Test system: ISC-enriched organoids
# Test: Primary screen, 384-well 2.5-D organoid differentiation (ENR+CD, 6 days, Target Selective Inhibitor Library, vs whole-plate median): ATP (CellTiter-Glo 3D, CTG)
# [1] = Dose 0.08 uM, standard z score of FC
# [2] = Dose 0.40 uM, standard z score of FC
# [3] = Dose 2.00 uM, standard z score of FC
# [4] = Dose 10.00 uM, standard z score of FC
# [5] = Dose 0.40 uM, primary screen, standard z score
# [6] = Dose 2.00 uM, primary screen, standard z score
# [7] = Dose 10.00 uM, primary screen, standard z score
Compound,Z.CTG [1],Z.CTG [2],Z.CTG [3],Z.CTG [4],"Z.CTG (standard z score) (Dose 0.08 uM, primary screen)","Z.CTG (standard z score) (Dose 0.40 uM, primary screen)","Z.CTG (standard z score) (Dose 2.00 uM, primary screen)","Z.CTG (standard z score) (Dose 10.00 uM, primary screen)",also measured
CCN(c1cc(-c2ccc(CN3CCOCC3)cc2)cc(C(=O)NCc2c(C)cc(C)[nH]c2=O)c1C)C1CCOCC1 [EPZ-6438],0.107,0.178,−0.163,0.802,–,–,–,–,–
CCCCCCCCCCCC1=C(O)C(=O)C=C(O)C1=O [Embelin],−0.770,−1.728,−0.776,−1.720,–,–,–,–,–
CCN(CC)C(=O)/C(C#N)=C/c1cc(O)c(O)c([N+](=O)[O-])c1 [Entacapone],−0.275,−0.154,0.493,−0.935,–,–,–,–,–
CCOc1ccccc1-n1c(C(C)N2CCN(C(=O)COc3ccc(Cl)cc3)CC2)nc2ccccc2c1=O (centres unmarked) [Erastin],0.537,0.681,0.907,0.711,–,–,–,–,–
COc1ccc2nc([S@@+]([O-])Cc3ncc(C)c(OC)c3C)[nH]c2c1 [Esomeprazole Sodium],0.689,0.475,0.923,0.648,–,–,–,–,–
CCc1cccc2c3c([nH]c12)C(CC)(CC(=O)O)OCC3 (centres unmarked) [Etodolac],−0.147,0.117,0.020,0.054,–,–,–,–,–
Cc1nc(C(=O)NCC(=O)O)c(O)c2ccc(Oc3ccccc3)cc12 [FG-4592],0.782,0.679,0.692,0.568,–,–,–,–,–
CCOC(=O)C1=C(C)NC(C)=C(C(=O)OC)C1c1cccc(Cl)c1Cl (centres unmarked) [Felodipine],−0.187,−0.763,0.025,0.078,–,–,–,–,–
CC(C)n1c(/C=C/C(O)CC(O)CC(=O)O)c(-c2ccc(F)cc2)c2ccccc21 (centres unmarked) [Fluvastatin Sodium],−0.384,−1.151,−2.653,−4.206,–,–,–,–,–
COCCCC/C(=N\OCCN)c1ccc(C(F)(F)F)cc1 [Fluvoxamine maleate],0.274,0.607,0.504,0.330,–,–,–,–,–
C=C[C@@]1(C)CC(=O)[C@]2(O)[C@@]3(C)[C@@H](O)CCC(C)(C)[C@@H]3[C@H](O)[C@H](OC(C)=O)[C@@]2(C)O1 [Forskolin],−0.508,−0.418,−0.789,−0.284,–,–,–,–,–
C[C@]12CC[C@@H]3c4ccc(O)cc4C[C@@H](CCCCCCCCC[S+]([O-])CCCC(F)(F)C(F)(F)F)[C@H]3[C@@H]1CC[C@@H]2O (some centres unmarked) [Fulvestrant],0.285,−0.150,0.339,−0.488,–,–,–,–,–
COc1ccc2c(c1)C(=O)N(CCc1ccc(S(=O)(=O)NC(=O)NC3CCCCC3)cc1)C(=O)C2(C)C [Gliquidone],0.297,–,–,–,–,–,–,–,Z.CTG [5]: 0.247; Z.CTG [6]: 0.588; Z.CTG [7]: 0.320
CN1C2CCCC1CC(NC(=O)c1nn(C)c3ccccc13)C2 (centres unmarked) [Granisetron HCl],–,–,–,–,–,–,–,–,"Z.CTG (Dose 0.08 uM, primary screen, standard z score): −0.512; Z.CTG [5]: −0.205; Z.CTG [6]: −0.426; Z.CTG [7]: −0.710"
Cc1cc(OCc2nnc(SC3CCCC3)n2-c2cccnc2)ccc1-c1ccc(S(C)(=O)=O)cc1 [NMS-873],0.416,−0.122,−2.173,−3.683,–,–,–,–,–
COc1ccccc1N1CCN(CC(O)COc2cccc3ccccc23)CC1 (centres unmarked) [Naftopidil],−0.093,−0.384,−0.426,−0.316,–,–,–,–,–
COc1ccc2cc([C@H](C)C(=O)O)ccc2c1 [Naproxen],−0.233,−0.162,−1.405,−3.063,–,–,–,–,–
OC(CNCC(O)C1CCc2cc(F)ccc2O1)C1CCc2cc(F)ccc2O1 (centres unmarked) [Nebivolol],0.926,0.526,0.746,0.499,–,–,–,–,–
COC(=O)C1=C(C#N)NC(C)=C(C(=O)OC(C)C)C1c1cccc([N+](=O)[O-])c1 (centres unmarked) [Nilvadipine],0.493,0.324,0.506,0.460,–,–,–,–,–
Cc1c(Cc2ccc3ccccc3n2)c2cc(F)ccc2n1CC(=O)O [OC000459],0.184,−0.155,0.210,0.211,–,–,–,–,–
Cc1sc2c(c1C)C(c1ccc(Cl)cc1)=N[C@@H](CC(=O)Nc1ccc(O)cc1)c1nnc(C)n1-2 [OTX015],−0.092,−0.952,−1.638,−2.169,–,–,–,–,–
NC(=O)N1c2ccccc2CC(=O)c2ccccc21 [Oxcarbazepine],−0.051,−0.247,−0.197,−0.359,–,–,–,–,–

Compound,Z.CTG [1],Z.CTG [2],Z.CTG [3],Z.CTG [4],"Z.CTG (standard z score) (Dose 0.08 uM, primary screen)","Z.CTG (standard z score) (Dose 0.40 uM, primary screen)","Z.CTG (standard z score) (Dose 2.00 uM, primary screen)","Z.CTG (standard z score) (Dose 10.00 uM, primary screen)",also measured
Cc1cc(C(C)(C)C)c(O)c(C)c1CC1=NCCN1 [Oxymetazoline HCl],0.340,0.281,−0.016,0.282,–,–,–,–,–
O=C(O)/C=C/c1ccc(Cn2ccnc2)cc1 [Ozagrel HCl],0.118,0.318,0.437,0.547,–,–,–,–,–
O=C(O)/C=C/c1ccc(Cn2ccnc2)cc1 [Ozagrel],0.131,0.535,−0.149,0.271,–,–,–,–,–
O=C(NOC[C@H](O)CO)c1ccc(F)c(F)c1Nc1ccc(I)cc1F [PD0325901],−1.200,−2.760,−2.072,−2.301,–,–,–,–,–
CC(C)CC(=O)Nc1[nH]nc2c1CN(C(=O)C1CCN(C)CC1)C2(C)C [PHA-793887],0.271,0.314,−0.344,−2.045,–,–,–,–,–
Oc1cc(O)cc(/C=C/c2ccc(O)c(O)c2)c1 [Piceatannol],0.554,−0.216,0.177,−0.170,–,–,–,–,–
COc1ccc(-c2nc3ccc(C4=NNC(=O)CC4C)cc3[nH]2)cc1 (centres unmarked) [Pimobendan],−0.053,0.460,0.492,0.333,–,–,–,–,–
Nc1cccc2c1C(=O)N(C1CCC(=O)NC1=O)C2=O (centres unmarked) [Pomalidomide],0.150,0.536,−0.517,−0.729,–,–,–,–,–
C#CCC(Cc1cnc2nc(N)nc(N)c2n1)c1ccc(C(=O)N[C@@H](CCC(=O)O)C(=O)O)cc1 (some centres unmarked) [Pralatrexate],–,–,–,–,−1.551,−2.036,−1.626,−2.201,–
CCCN[C@H]1CCc2nc(N)sc2C1 [Pramipexole],–,–,–,–,0.261,0.436,0.062,0.551,–
CC(C)NCC(O)COc1cccc2ccccc12 (centres unmarked) [Propranolol HCl],–,–,–,–,0.158,0.129,0.279,0.400,–
CCc1nc(N)nc(N)c1-c1ccc(Cl)cc1 [Pyrimethamine],–,–,–,–,0.016,−0.618,−0.994,−1.480,–
CCC(=O)NCC[C@@H]1CCc2ccc3c(c21)CCO3 [Ramelteon],–,–,–,–,−0.066,0.369,−0.752,0.358,–
CNC(=C[N+](=O)[O-])NCCSCc1ccc(CN(C)C)o1 [Ranitidine],–,–,–,–,−0.121,0.370,−0.165,−0.625,–
C#CCN[C@@H]1CCc2ccccc21 [Rasagiline Mesylate],–,–,–,–,0.367,0.246,0.099,0.249,–
O=C(NC(Cc1cc(=O)[nH]c2ccccc12)C(=O)O)c1ccc(Cl)cc1 (centres unmarked) [Rebamipide],–,–,–,–,−0.612,−1.217,−0.484,−0.672,–
Cc1c(C(=O)NN2CCCCC2)nn(-c2ccc(Cl)cc2Cl)c1-c1ccc(Cl)cc1 [Rimonabant],–,–,–,–,0.611,0.492,0.561,0.152,–
O=C(NC[C@H]1CN(c2ccc(N3CCOCC3=O)cc2)C(=O)O1)c1ccc(Cl)s1 [Rivaroxaban],–,–,–,–,0.050,0.466,0.123,0.104,–
CN(C)CCc1c[nH]c2ccc(Cn3cncn3)cc12 [Rizatriptan Benzoate],–,–,–,–,0.512,0.260,0.302,−0.129,–
COc1cc2c(cc1OC)[C@@H]1Cc3ccc(OC)c(OC)c3CN1CC2 [Rotundine],–,–,–,–,0.857,0.818,0.454,0.543,–
CC(=O)OCC(=O)NCCCOc1cccc(CN2CCCCC2)c1 [Roxatidine Acetate HCl],–,–,–,–,−0.095,0.050,−0.245,−0.564,–
CC(C)N(CCCNC(=O)Nc1ccc(C(C)(C)C)cc1)C[C@H]1O[C@@H](n2cc(Br)c3c(N)ncnc32)[C@H](O)[C@@H]1O [SGC0946],–,–,–,–,0.124,−0.290,−0.197,−0.340,–
